Measured values as given in publication PMC5218480 (PLoS ONE, 2017).

System: MV-4-11 cells
Experiment: Gene expression microarray analysis (Affymetrix PrimeView) and GSEA
Format: cell-based, human
Parameters: RFU PODN (11730768_x_at) / Fold change /veh PODN (11730768_x_at) / RFU LINC00158 (11744669_a_at) / Fold change /veh LINC00158 (11744669_a_at) / RFU DUSP10 (11751237_a_at) / Fold change /veh DUSP10 (11751237_a_at) / RFU ID3 (11757404_x_at) / Fold change /veh ID3 (11757404_x_at) / RFU PLEKHG5 (11737974_s_at) / Fold change /veh PLEKHG5 (11737974_s_at) / RFU LRRC4B (11730491_at) / Fold change /veh LRRC4B (11730491_at) / RFU GIMAP4 (11747438_a_at) / Fold change /veh GIMAP4 (11747438_a_at) / RFU KRT8 (11758183_x_at) / Fold change /veh KRT8 (11758183_x_at) / RFU CNN1 (11734310_a_at) / Fold change /veh CNN1 (11734310_a_at) / RFU VPS37D (11726825_at) / Fold change /veh VPS37D (11726825_at) / RFU C10orf10 (11716522_x_at) / Fold change /veh C10orf10 (11716522_x_at) / RFU KIR2DL2 /// KIR2DL4 /// KIR2DL5A /// KIR2DL5B /// KIR2DS1 /// KIR2DS2 /// KIR2DS3 /// KIR2DS4 /// KIR3DL3 /// KIR3DL3 /// KIR3DS1 (11738374_at) / Fold change /veh KIR2DL2 /// KIR2DL4 /// KIR2DL5A /// KIR2DL5B /// KIR2DS1 /// KIR2DS2 /// KIR2DS3 /// KIR2DS4 /// KIR3DL3 /// KIR3DL3 /// KIR3DS1 (11738374_at) / RFU C1QL1 (11718748_at) / Fold change /veh C1QL1 (11718748_at) / RFU TMPRSS4 (11747572_a_at) / Fold change /veh TMPRSS4 (11747572_a_at) / RFU HAMP (11756126_x_at) / Fold change /veh HAMP (11756126_x_at) / RFU RNFT2 (11725882_a_at) / Fold change /veh RNFT2 (11725882_a_at) / RFU NR4A2 (11747474_a_at) / Fold change /veh NR4A2 (11747474_a_at) / RFU ABCC12 (11746883_a_at) / Fold change /veh ABCC12 (11746883_a_at) / RFU TMEM136 (11760407_x_at) / Fold change /veh TMEM136 (11760407_x_at) / RFU CLDN22 /// WWC2 (11732394_at) / Fold change /veh CLDN22 /// WWC2 (11732394_at) / RFU HLA-DPB1 (11760878_x_at) / Fold change /veh HLA-DPB1 (11760878_x_at) / RFU SPINT1 (11716480_a_at) / Fold change /veh SPINT1 (11716480_a_at) / RFU GAP43 (11754022_s_at) / Fold change /veh GAP43 (11754022_s_at) / RFU A4GNT (11735810_at) / Fold change /veh A4GNT (11735810_at) / RFU PRB3 (11715151_x_at) / Fold change /veh PRB3 (11715151_x_at) / RFU TUBB4B (11761932_at) / Fold change /veh TUBB4B (11761932_at) / RFU CAPN14 (11732068_a_at) / Fold change /veh CAPN14 (11732068_a_at) / RFU TMCC2 (11721928_a_at) / Fold change /veh TMCC2 (11721928_a_at) / RFU IRGQ (11745062_a_at) / Fold change /veh IRGQ (11745062_a_at) / RFU FAM174B (11720279_a_at) / Fold change /veh FAM174B (11720279_a_at) / RFU TMPRSS4 (11748680_a_at) / Fold change /veh TMPRSS4 (11748680_a_at) / RFU FAM212B (11763350_a_at) / Fold change /veh FAM212B (11763350_a_at) / RFU PLEKHG5 (11743358_a_at) / Fold change /veh PLEKHG5 (11743358_a_at) / RFU ZSCAN30 (11745921_a_at) / Fold change /veh ZSCAN30 (11745921_a_at) / RFU CMKLR1 (11741424_a_at) / Fold change /veh CMKLR1 (11741424_a_at) / RFU LOC101060620 /// MAPK8IP1 (11723275_at) / Fold change /veh LOC101060620 /// MAPK8IP1 (11723275_at) / RFU SPTSSB (11747773_x_at) / Fold change /veh SPTSSB (11747773_x_at) / RFU PRSS12 (11739890_at) / Fold change /veh PRSS12 (11739890_at) / RFU BIN1 (11741810_x_at) / Fold change /veh BIN1 (11741810_x_at) / RFU WNT11 (11732464_a_at) / Fold change /veh WNT11 (11732464_a_at) / RFU C10orf10 (11716521_a_at) / Fold change /veh C10orf10 (11716521_a_at) / RFU C5orf56 (11738089_at) / Fold change /veh C5orf56 (11738089_at) / RFU CYB561 (11721691_x_at) / Fold change /veh CYB561 (11721691_x_at) / RFU ANKRD19P (11752326_a_at) / Fold change /veh ANKRD19P (11752326_a_at) / RFU OR2T12 /// OR2T33 /// OR2T8 (11738714_s_at) / Fold change /veh OR2T12 /// OR2T33 /// OR2T8 (11738714_s_at) / RFU VCAN (11748164_a_at) / Fold change /veh VCAN (11748164_a_at) / RFU JSRP1 (11732532_at) / Fold change /veh JSRP1 (11732532_at) / RFU KRTAP10-11 (11738290_x_at) / Fold change /veh KRTAP10-11 (11738290_x_at) / RFU MYO3A (11730013_a_at) / Fold change /veh MYO3A (11730013_a_at) / RFU EBF3 (11725865_a_at) / Fold change /veh EBF3 (11725865_a_at) / RFU CAMK2N1 (11719241_x_at) / Fold change /veh CAMK2N1 (11719241_x_at) / RFU C5orf56 (11738088_a_at) / Fold change /veh C5orf56 (11738088_a_at) / RFU OLFML3 (11715873_a_at) / Fold change /veh OLFML3 (11715873_a_at) / RFU LOC100653217 /// NTM (11731650_a_at) / Fold change /veh LOC100653217 /// NTM (11731650_a_at) / RFU MAPK11 (11762145_a_at) / Fold change /veh MAPK11 (11762145_a_at) / RFU FIZ1 (11724087_x_at) / Fold change /veh FIZ1 (11724087_x_at) / RFU OASL (11726364_x_at) / Fold change /veh OASL (11726364_x_at) / RFU SOX15 (11748057_x_at) / Fold change /veh SOX15 (11748057_x_at) / RFU CD79A (11719716_a_at) / Fold change /veh CD79A (11719716_a_at) / RFU HIST1H1D (11736915_at) / Fold change /veh HIST1H1D (11736915_at) / RFU CASKIN2 (11723855_a_at) / Fold change /veh CASKIN2 (11723855_a_at) / RFU LOC730098 (11760151_x_at) / Fold change /veh LOC730098 (11760151_x_at) / RFU OR4N2 (11742367_at) / Fold change /veh OR4N2 (11742367_at) / RFU PRRT2 (11749266_a_at) / Fold change /veh PRRT2 (11749266_a_at) / RFU SNX32 (11753110_a_at) / Fold change /veh SNX32 (11753110_a_at) / RFU CDHR5 (11726645_a_at) / Fold change /veh CDHR5 (11726645_a_at) / RFU RCAN1 (11760418_a_at) / Fold change /veh RCAN1 (11760418_a_at) / RFU FAM167A (11723789_a_at) / Fold change /veh FAM167A (11723789_a_at) / RFU FAM26E (11764081_at) / Fold change /veh FAM26E (11764081_at) / RFU ISYNA1 (11749810_s_at) / Fold change /veh ISYNA1 (11749810_s_at) / RFU ACY1 (11761880_at) / Fold change /veh ACY1 (11761880_at) / RFU 11764098_at / Fold change /veh 11764098_at / RFU SAMD14 (11745864_x_at) / Fold change /veh SAMD14 (11745864_x_at) / RFU NPB (11741838_a_at) / Fold change /veh NPB (11741838_a_at) / RFU TMPRSS6 (11731388_a_at) / Fold change /veh TMPRSS6 (11731388_a_at) / RFU KRTAP10-2 (11738614_at) / Fold change /veh KRTAP10-2 (11738614_at) / RFU ARHGAP8 /// PRR5-ARHGAP8 (11727945_x_at) / Fold change /veh ARHGAP8 /// PRR5-ARHGAP8 (11727945_x_at) / RFU KRTAP5-7 /// NADSYN1 (11734609_at) / Fold change /veh KRTAP5-7 /// NADSYN1 (11734609_at) / RFU RASL12 (11751679_a_at) / Fold change /veh RASL12 (11751679_a_at) / RFU CDKN2B (11736163_a_at) / Fold change /veh CDKN2B (11736163_a_at) / RFU PRF1 (11729649_at) / Fold change /veh PRF1 (11729649_at) / RFU, ZNF638 /// ZNF638-IT1 / Fold change vs veh, ZNF638 /// ZNF638-IT1 / RFU, PANK3 / Fold change vs veh, PANK3 / RFU, SH3YL1 / Fold change vs veh, SH3YL1 / RFU, ZEB2 / Fold change vs veh, ZEB2 / RFU, NRIP1 / Fold change vs veh, NRIP1 / RFU, PTTG1IP / Fold change vs veh, PTTG1IP / RFU, CAPN2 / Fold change vs veh, CAPN2 / RFU, MED14 / Fold change vs veh, MED14 / RFU, SNORA58 / Fold change vs veh, SNORA58 / RFU, C1orf63 / Fold change vs veh, C1orf63 / RFU, LRRFIP1 / Fold change vs veh, LRRFIP1 / RFU, NDUFAF7 / Fold change vs veh, NDUFAF7 / RFU, SLC12A2 / Fold change vs veh, SLC12A2 / RFU, IBTK / Fold change vs veh, IBTK / RFU, ESF1 / Fold change vs veh, ESF1 / Fold change vs veh, TMEM50B / RFU, TAOK1 / Fold change vs veh, TAOK1 / RFU, ACBD3 / Fold change vs veh, ACBD3 / RFU, TMA16 / Fold change vs veh, TMA16 / RFU, RWDD3 / Fold change vs veh, RWDD3 / RFU, BCAT1 / Fold change vs veh, BCAT1 / RFU, EDEM3 / Fold change vs veh, EDEM3 / RFU, TMEM33 / Fold change vs veh, TMEM33 / RFU, WDR75 / Fold change vs veh, WDR75 / RFU, AHCTF1 / Fold change vs veh, AHCTF1 / RFU, TFRC / Fold change vs veh, TFRC / RFU, ZDHHC17 / Fold change vs veh, ZDHHC17 / RFU, NOM1 / Fold change vs veh, NOM1 / RFU, ARL8B / Fold change vs veh, ARL8B / RFU, ZBTB11 / Fold change vs veh, ZBTB11 / RFU, TAMM41 / Fold change vs veh, TAMM41 / RFU, KIAA1704 /// LOC100996395 / Fold change vs veh, KIAA1704 /// LOC100996395 / RFU, ING1 / Fold change vs veh, ING1 / RFU, TRMT61B / Fold change vs veh, TRMT61B / RFU, FUBP3 / Fold change vs veh, FUBP3 / RFU, TP53 / Fold change vs veh, TP53 / RFU, TNKS2 / Fold change vs veh, TNKS2 / RFU, ZFP14 / Fold change vs veh, ZFP14 / RFU, ACTR2 / Fold change vs veh, ACTR2 / RFU, PPP3R1 / Fold change vs veh, PPP3R1 / RFU, PIK3R1 / Fold change vs veh, PIK3R1 / RFU, HNRNPA1 / Fold change vs veh, HNRNPA1 / RFU, RNF170 / Fold change vs veh, RNF170 / RFU, ZNF28 / Fold change vs veh, ZNF28 / RFU, RNGTT / Fold change vs veh, RNGTT / RFU, OGT / Fold change vs veh, OGT / RFU, BRD1 / Fold change vs veh, BRD1 / RFU, MARS / Fold change vs veh, MARS / RFU, ZNF655 / Fold change vs veh, ZNF655 / RFU, FAHD1 / Fold change vs veh, FAHD1 / RFU, BDP1 / Fold change vs veh, BDP1 / RFU, LRRCC1 / Fold change vs veh, LRRCC1 / RFU, ARID1A / Fold change vs veh, ARID1A / RFU, ZNF146 / Fold change vs veh, ZNF146 / RFU, ZNF330 / Fold change vs veh, ZNF330 / RFU, GPN3 / Fold change vs veh, GPN3 / RFU, C9orf123 / Fold change vs veh, C9orf123 / RFU, N4BP2L2 / Fold change vs veh, N4BP2L2 / RFU, ARFIP1 / Fold change vs veh, ARFIP1 / RFU, FAM179B / Fold change vs veh, FAM179B / RFU, BCL10 / Fold change vs veh, BCL10 / RFU, UHRF1BP1L / Fold change vs veh, UHRF1BP1L / RFU, BET1 / Fold change vs veh, BET1 / RFU, CNOT2 / Fold change vs veh, CNOT2 / RFU, ZNF268 / Fold change vs veh, ZNF268 / Fold change vs veh, ZNF507 / RFU, DGCR2 / Fold change vs veh, DGCR2 / RFU, WDSUB1 / Fold change vs veh, WDSUB1 / Fold change vs veh, HSP90B1 /// MIR3652 / RFU, ADSS / Fold change vs veh, ADSS / RFU, GK / Fold change vs veh, GK / RFU, ZNF148 / Fold change vs veh, ZNF148 / RFU, TAF9 / Fold change vs veh, TAF9 / RFU, SLC1A5 / Fold change vs veh, SLC1A5 / RFU, SLMO2 / Fold change vs veh, SLMO2 / RFU, ABCC4 / Fold change vs veh, ABCC4 / RFU, LOC101060439 /// RAP1B / Fold change vs veh, LOC101060439 /// RAP1B / RFU, RFX7 / Fold change vs veh, RFX7 / RFU, GTPBP10 / Fold change vs veh, GTPBP10 / RFU, CNEP1R1 / Fold change vs veh, CNEP1R1 / RFU, BIVM-ERCC5 /// ERCC5 / Fold change vs veh, BIVM-ERCC5 /// ERCC5 / RFU, ILF3 / Fold change vs veh, ILF3 / RFU 11762660_at / Fold change /veh 11762660_at / RFU VCAN (11757783_s_at) / Fold change /veh VCAN (11757783_s_at) / RFU DDX43 (11728927_at) / Fold change /veh DDX43 (11728927_at) / RFU KRT8 (11758188_x_at) / Fold change /veh KRT8 (11758188_x_at) / RFU NKD1 (11759106_at) / Fold change /veh NKD1 (11759106_at) / RFU SRD5A1 (11742802_a_at) / Fold change /veh SRD5A1 (11742802_a_at) / RFU TPSAB1 /// TPSB2 (11721975_s_at) / Fold change /veh TPSAB1 /// TPSB2 (11721975_s_at) / RFU GSTM3 (11746129_a_at) / Fold change /veh GSTM3 (11746129_a_at) / RFU IL23R (11737362_x_at) / Fold change /veh IL23R (11737362_x_at) / RFU TMEM51 (11727254_a_at) / Fold change /veh TMEM51 (11727254_a_at) / RFU PIWIL2 (11732686_x_at) / Fold change /veh PIWIL2 (11732686_x_at) / RFU ORM1 (11744905_x_at) / Fold change /veh ORM1 (11744905_x_at) / RFU CCDC152 (11743942_at) / Fold change /veh CCDC152 (11743942_at) / RFU ECM1 (11717891_a_at) / Fold change /veh ECM1 (11717891_a_at) / RFU IL23R (11748794_a_at) / Fold change /veh IL23R (11748794_a_at) / RFU TNFAIP8L3 (11732012_x_at) / Fold change /veh TNFAIP8L3 (11732012_x_at) / RFU MBOAT4 (11741988_at) / Fold change /veh MBOAT4 (11741988_at) / RFU 11764193_at / Fold change /veh 11764193_at / RFU TMEM53 (11763286_at) / Fold change /veh TMEM53 (11763286_at) / RFU MAGEB2 (11727129_at) / Fold change /veh MAGEB2 (11727129_at) / RFU TMEM200A (11744735_a_at) / Fold change /veh TMEM200A (11744735_a_at) / RFU CCDC152 (11751479_a_at) / Fold change /veh CCDC152 (11751479_a_at) / RFU FAM211A (11726209_a_at) / Fold change /veh FAM211A (11726209_a_at) / RFU RGS16 (11746705_a_at) / Fold change /veh RGS16 (11746705_a_at) / RFU VCAN (11755009_s_at) / Fold change /veh VCAN (11755009_s_at) / RFU RHOB (11743442_s_at) / Fold change /veh RHOB (11743442_s_at) / RFU RGS16 (11720943_a_at) / Fold change /veh RGS16 (11720943_a_at) / RFU RGS16 (11720944_at) / Fold change /veh RGS16 (11720944_at) / RFU, VPS4B / Fold change vs veh, VPS4B / RFU, CREB1 / Fold change vs veh, CREB1 / RFU, DNAJC13 / Fold change vs veh, DNAJC13 / RFU, GNAQ / Fold change vs veh, GNAQ / RFU, CDK5R1 / Fold change vs veh, CDK5R1 / RFU, ZRANB3 / Fold change vs veh, ZRANB3 / RFU, CUL4A / Fold change vs veh, CUL4A / RFU, CCNY / Fold change vs veh, CCNY / RFU, UFL1 / Fold change vs veh, UFL1 / RFU, COG3 / Fold change vs veh, COG3 / RFU, DIAPH2 / Fold change vs veh, DIAPH2 / RFU, SKA2 / Fold change vs veh, SKA2 / RFU, AFF3 / Fold change vs veh, AFF3 / RFU, LMF1 / Fold change vs veh, LMF1 / RFU, IPO11 / Fold change vs veh, IPO11 / RFU, DFFB / Fold change vs veh, DFFB / RFU, FOXP1 / Fold change vs veh, FOXP1 / RFU, CARD8 / Fold change vs veh, CARD8 / RFU, STRN3 / Fold change vs veh, STRN3 / RFU, ADK / Fold change vs veh, ADK / RFU, RASSF2 / Fold change vs veh, RASSF2 / RFU, WIPF1 / Fold change vs veh, WIPF1 / RFU, LARP1B / Fold change vs veh, LARP1B / RFU, RASA1 / Fold change vs veh, RASA1 / RFU, RB1 / Fold change vs veh, RB1 / RFU, PPFIA1 / Fold change vs veh, PPFIA1 / RFU, MAT2A / Fold change vs veh, MAT2A / RFU, CCT5 / Fold change vs veh, CCT5 / RFU, WDR92 / Fold change vs veh, WDR92 / RFU, CUX1 / Fold change vs veh, CUX1 / RFU, TTC7A / Fold change vs veh, TTC7A / RFU, TMEM135 / Fold change vs veh, TMEM135 / RFU, DEPTOR / Fold change vs veh, DEPTOR / RFU, CPM / Fold change vs veh, CPM / RFU, DNAJB6 / Fold change vs veh, DNAJB6 / RFU, CACNA2D3 / Fold change vs veh, CACNA2D3 / RFU, DTX4 / Fold change vs veh, DTX4 / RFU, TFCP2 / Fold change vs veh, TFCP2 / RFU, GMCL1 /// GMCL1P1 / Fold change vs veh, GMCL1 /// GMCL1P1 / RFU, AEBP2 / Fold change vs veh, AEBP2 / RFU, SNHG1 /// SNORD22 /// SNORD25 /// SNORD26 /// SNORD27 /// SNORD28 /// SNORD29 /// SNORD31 / Fold change vs veh, SNHG1 /// SNORD22 /// SNORD25 /// SNORD26 /// SNORD27 /// SNORD28 /// SNORD29 /// SNORD31 / Fold change (Aza/veh), C12orf56 (ProbeSet 11735607_a_at) / Fold change (ACY-1035/veh), C12orf56 (ProbeSet 11735607_a_at) / Fold change (Aza/veh), FGFR1OP (ProbeSet 11751329_s_at) / Fold change (ACY-1035/veh), FGFR1OP (ProbeSet 11751329_s_at) / Fold change (Aza/veh), VPS36 (ProbeSet 11739960_a_at) / Fold change (ACY-1035/veh), VPS36 (ProbeSet 11739960_a_at) / RFU SYPL1 (11715823_x_at) / Fold change /veh SYPL1 (11715823_x_at) / RFU IGFBP7 (11715501_s_at) / Fold change /veh IGFBP7 (11715501_s_at) / RFU REEP3 (11722064_at) / Fold change /veh REEP3 (11722064_at) / RFU IGLL1 (11728026_x_at) / Fold change /veh IGLL1 (11728026_x_at): dose or concentration left out as unconfirmed
Details: ProbeSet 11734782_x_at; LIST D

Nc1ccc(-c2cccs2)cc1NC(=O)c1ccc2c(c1)cc(C1CC1)n2CCN1CCOCC1 [ACY-1035]
RFU, WDR92: 63.28 RFU
